In the NIST ThermoML archive (doi:10.1021/je300102d):
Numbers after ± are expanded uncertainties.

Assay: xn = mol fraction of the nth substance listed
Details: 101 kPa, Liquid; for viscosity: Concentric cylinders viscometry; for mass density: Vibrating tube method

C1CNCCN1 [piperazine] + O
Details	mass density, x1 = 0.00181 [kg/m3]	mass density, x1 = 0.00367 [kg/m3]	mass density, x1 = 0.00741 [kg/m3]	mass density, x1 = 0.01119 [kg/m3]	mass density, x1 = 0.01938 [kg/m3]	viscosity, x1 = 0.000906 [mPa·s]	viscosity, x1 = 0.00182 [mPa·s]	viscosity, x1 = 0.00366 [mPa·s]	viscosity, x1 = 0.00553 [mPa·s]	viscosity, x1 = 0.00742 [mPa·s]
283.15 K	1000.15 ± 0.2	1000.51 ± 0.2	1001.34 ± 0.2	1002.24 ± 0.2	1004.7 ± 0.2	1.33 ± 0.054	1.362 ± 0.055	1.393 ± 0.056	1.462 ± 0.059	1.533 ± 0.062
293.15 K	998.63 ± 0.2	998.98 ± 0.2	999.75 ± 0.2	1000.58 ± 0.2	1002.52 ± 0.2	1.012 ± 0.041	1.043 ± 0.042	1.092 ± 0.044	1.119 ± 0.045	1.174 ± 0.048
303.15 K	996.1 ± 0.2	996.42 ± 0.2	997.15 ± 0.2	997.91 ± 0.2	999.69 ± 0.2	0.8241 ± 0.034	0.8339 ± 0.034	0.8791 ± 0.036	0.8894 ± 0.036	0.9414 ± 0.038
313.15 K	992.66 ± 0.2	992.99 ± 0.2	993.68 ± 0.2	994.37 ± 0.2	996.04 ± 0.2	0.6757 ± 0.028	0.6868 ± 0.028	0.7176 ± 0.029	0.7531 ± 0.031	0.78 ± 0.032
323.15 K	988.51 ± 0.2	988.81 ± 0.2	989.47 ± 0.2	990.14 ± 0.2	991.64 ± 0.2	0.5816 ± 0.024	0.5923 ± 0.024	0.621 ± 0.025	0.6448 ± 0.026	0.6604 ± 0.027

O [water] + N
x2 = 0
Details	mass density [kg/m3]	viscosity [mPa·s]
283.15 K	999.7 ± 0.2	1.307 ± 0.053
293.15 K	–	1.002 ± 0.041
303.15 K	–	0.7977 ± 0.032
313.15 K	–	0.6532 ± 0.027
323.15 K	988.04 ± 0.2	0.547 ± 0.023

O [water] + C1CNCCN1
x2 = 0
Details	mass density [kg/m3]	viscosity [mPa·s]
283.15 K	999.7 ± 0.2	1.307 ± 0.053
293.15 K	–	1.002 ± 0.041
303.15 K	–	0.7977 ± 0.032
313.15 K	–	0.6532 ± 0.027
323.15 K	988.04 ± 0.2	0.547 ± 0.023

N [ammonia] + O
Details	mass density, x1 = 0.0268 [kg/m3]	mass density, x1 = 0.0505 [kg/m3]	mass density, x1 = 0.1124 [kg/m3]	mass density, x1 = 0.148 [kg/m3]	mass density, x1 = 0.3043 [kg/m3]	viscosity, x1 = 0.0111 [mPa·s]	viscosity, x1 = 0.0262 [mPa·s]	viscosity, x1 = 0.0279 [mPa·s]	viscosity, x1 = 0.1147 [mPa·s]	viscosity, x1 = 0.176 [mPa·s]
283.15 K	988.73 ± 0.2	979.82 ± 0.2	957.85 ± 0.2	944.97 ± 0.21	895.9 ± 0.22	1.313 ± 0.053	1.428 ± 0.058	1.352 ± 0.055	1.559 ± 0.063	1.713 ± 0.069
293.15 K	986.79 ± 0.2	977.5 ± 0.2	954.52 ± 0.2	941.01 ± 0.21	889.82 ± 0.22	1.025 ± 0.042	1.074 ± 0.043	1.046 ± 0.042	1.157 ± 0.047	1.289 ± 0.052
303.15 K	983.98 ± 0.2	974.43 ± 0.2	950.65 ± 0.2	936.67 ± 0.21	–	0.8106 ± 0.033	0.845 ± 0.034	0.8278 ± 0.034	0.9025 ± 0.037	0.9955 ± 0.04
313.15 K	980.32 ± 0.2	970.59 ± 0.2	946.14 ± 0.2	931.7 ± 0.21	–	0.672 ± 0.027	0.7124 ± 0.029	0.6922 ± 0.028	0.7653 ± 0.031	0.8467 ± 0.034
323.15 K	975.98 ± 0.2	966.09 ± 0.2	940.98 ± 0.2	926.12 ± 0.21	–	0.5645 ± 0.023	0.5945 ± 0.024	0.5795 ± 0.024	0.6297 ± 0.026	0.6829 ± 0.028
